According to patent US20260041744A1, “Methods for Treating Pompe Disease” (Amicus Therapeutics, Inc., priority 2022, published 2026):
Where “and” joins values, the source holds several entries; their conditions need not be identical. Equal values may be shown once.

Tests used:
[1] = tested on: adults with Pompe disease; assay: Study ATB200-02 (20 mg/kg cipaglucosidase alfa IV + 260 mg miglustat): 6MWT (6MWD, % predicted 6MWD); format: in vivo, human;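 also: Open-label Phase I/II trial, ambulatory cohorts only, values are changes from baseline or counts relative to the baseline walk test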
Procedure: The change from baseline (CFBL) in 6MWD, % predicted sitting FVC, manual muscle test (MMT) and biomarkers—urine glucose tetrasaccharide (Hex4) and serum creatine kinase (CK)—were assessed at regular intervals.
The 4 cohorts in the study are as follows: • Cohort 1: ERT-experienced (2 to 6 years) ambulatory subjects (11 subjects) • Cohort 2: ERT-experienced (≥2 years) non-ambulatory subjects (6 subjects) • Cohort 3: ERT-naïve ambulatory subjects (6 subjects)· • Cohort 4: ERT-experienced (≥7 years) ambulatory subjects (6 subjects)
In Study ATB200-02, motor function was evaluated in all ambulatory subjects (ie, Cohorts 1, 3, and 4) (Table 23, FIGS. 46A-46D).

[2] = Study ATB200-02: safety (TEAEs); details: in vivo
Source text: Mean (SD) duration of treatment was 37.2 (14.48), 19.9 (4.13) and 36.9 (12.14) months in cohorts 1 (prior ERT 2-6 years), 4 (prior ERT ≥7 years) and 3 (ERT naive), respectively.
Mean (SD) duration of treatment was 46.3 (22.86) months.

[3] = Ambulatory ERT-experienced, 12 months
[4] = Ambulatory ERT-experienced, 24 months
[5] = Ambulatory ERT-experienced, 36 months
[6] = Ambulatory ERT-experienced, 48 months
[7] = Ambulatory ERT-naïve, 12 months
[8] = Ambulatory ERT-naïve, 24 months
[9] = Ambulatory ERT-naïve, 36 months
[10] = Ambulatory ERT-naïve, 48 months
[11] = Cohort 1 + Cohort 3 + Cohort 4, Month 12
[12] = Cohort 1 + Cohort 3 + Cohort 4, Month 24
[13] = Cohort 1 + Cohort 3 + Cohort 4, Month 36
[14] = Cohort 1 + Cohort 3 + Cohort 4, Month 48

Substance: ATB200/miglustat: two-component therapy: cipaglucosidase alfa (ATB200) administered in conjunction with miglustat (AT2221), a stabilizer of cipaglucosidase alfa
- motor function by 6MWT ([1]; 48 months, Cohorts 1, 3, 4): clinically meaningful improvements in motor function as measured by the 6MWT
- 6MWD, CFBL mean [1, 3]: 33.5 meters
- Percent predicted 6MWD, CFBL mean [1, 3]: 6.1
- 6MWD, CFBL mean [1, 4]: 25.2 meters
- Percent predicted 6MWD, CFBL mean [1, 4]: 5.4
- 6MWD, CFBL mean [1, 5]: 9.8 meters
- Percent predicted 6MWD, CFBL mean [1, 5]: 3.4
- 6MWD, CFBL mean [1, 6]: 20.7 meters
- Percent predicted 6MWD, CFBL mean [1, 6]: 5.9
- 6MWD, CFBL mean [1, 7]: 57.0 meters
- Percent predicted 6MWD, CFBL mean [1, 7]: 10.7
- 6MWD, CFBL mean [1, 8]: 54.4 meters
- Percent predicted 6MWD, CFBL mean [1, 8]: 11.0
- 6MWD, CFBL mean [1, 9]: 43.5 meters
- Percent predicted 6MWD, CFBL mean [1, 9]: 9.0
- 6MWD, CFBL mean [1, 10]: 52.2 meters
- Percent predicted 6MWD, CFBL mean [1, 10]: 11.7
- 6MWD change from baseline, mean [1, 11]: 39.9 meters
- 6MWD change from baseline, median [1, 11]: 27.4 meters
- 6MWD change from baseline, mean [1, 12]: 34.4 meters
- 6MWD change from baseline, median [1, 12]: 22.6 meters
- 6MWD change from baseline, mean [1, 13]: 19.7 meters
- 6MWD change from baseline, median [1, 13]: 24.2 meters
- 6MWD change from baseline, mean [1, 14]: 30.4 meters
- 6MWD change from baseline, median [1, 14]: 27.0 meters
- 6MWD change from baseline, mean ([1]; Cohort 1 + Cohort 4 (ERT-experienced), Month 12, listed as cipaglucosidase alfa/miglustat): 33 meters and 33.5 meters
- 6MWD change from baseline, mean ([1]; Cohort 1 + Cohort 4 (ERT-experienced), Month 24, listed as cipaglucosidase alfa/miglustat): 25 meters and 25.2 meters
- 6MWD change from baseline, mean ([1]; Cohort 1 + Cohort 4 (ERT-experienced), Month 36, listed as cipaglucosidase alfa/miglustat): 9.8 meters
- 6MWD change from baseline, mean ([1]; Cohort 1 + Cohort 4 (ERT-experienced), Month 48, listed as cipaglucosidase alfa/miglustat): 20 meters and 20.7 meters
- 6MWD change from baseline, median ([1]; Cohort 1 + Cohort 4, Month 12): 20.6 meters
- 6MWD change from baseline, median ([1]; Cohort 1 + Cohort 4, Month 24): 18.5 meters
- 6MWD change from baseline, median ([1]; Cohort 1 + Cohort 4, Month 36): 11.6 meters
- 6MWD change from baseline, median ([1]; Cohort 1 + Cohort 4, Month 48): 27.0 meters
- 6MWD change from baseline, mean ([1]; Cohort 3 (ERT-naïve), Month 12, listed as cipaglucosidase alfa/miglustat): 57 meters and 57.0 meters
- 6MWD change from baseline, mean ([1]; Cohort 3 (ERT-naïve), Month 24, listed as cipaglucosidase alfa/miglustat): 54 meters and 54.4 meters
- 6MWD change from baseline, mean ([1]; Cohort 3 (ERT-naïve), Month 36, listed as cipaglucosidase alfa/miglustat): 43 meters and 43.5 meters
- 6MWD change from baseline, mean ([1]; Cohort 3 (ERT-naïve), Month 48, listed as cipaglucosidase alfa/miglustat): 52 meters and 52.2 meters
- 6MWD change from baseline, median ([1]; Cohort 3, Month 12): 55.6 meters
- 6MWD change from baseline, median ([1]; Cohort 3, Month 24): 49.0 meters
- 6MWD change from baseline, median ([1]; Cohort 3, Month 36): 59.0 meters
- 6MWD change from baseline, median ([1]; Cohort 3, Month 48): 40.5 meters
- patients whose 6MWD improved numerically from baseline (n/N) ([1]; ERT-experienced, 12 months): 13/16
- patients whose 6MWD improved numerically from baseline (n/N) ([1]; ERT-experienced, 24 months): 9/13
- patients whose 6MWD improved numerically from baseline (n/N) ([1]; ERT-experienced, 36 months): 6/12
- patients whose 6MWD improved numerically from baseline (n/N) ([1]; ERT-experienced, 48 months): 6/9
- patients with improvement from baseline in mean % predicted 6MWD ([1]; ERT-experienced, Month 48): 88.9%
- patients whose 6MWD improved numerically from baseline (n/N) ([1]; ERT-naïve, 12 months): 6/6
- patients whose 6MWD improved numerically from baseline (n/N) ([1]; ERT-naïve, 24 months): 6/6
- patients whose 6MWD improved numerically from baseline (n/N) ([1]; ERT-naïve, 36 months): 4/5
- patients whose 6MWD improved numerically from baseline (n/N) ([1]; ERT-naïve, 48 months): 4/4
- patients with improvement from baseline in mean % predicted 6MWD ([1]; ERT-naïve, Month 48): 100%
- TEAE profile / tolerability [2]: most TEAEs were mild or moderate in severity and did not lead to study withdrawal
